Measured values: ChEMBL document CHEMBL1159132, “A small library of peptidomimetics to systematically vary and test the effects of X1 constraints” (Bioorg Med Chem Lett, 1996)
Several values for one entry are separate records, joined by “and”; a condition that tells them apart may be missing. Equal entries are not always repeated.

Assay: Inhibition of radiolabeled neuropeptide FF binding to neuropeptide FF receptors in rat spinal cord
Set-up: concentration or dose not given beside the values
Details: concentration not given here

| SMILES | inhibition |
| --- | --- |
| CC(C)[C@H]1CC1(NC(=O)[C@H](Cc1ccccc1)NC(=O)CNC(=O)CNC(=O)[C@@H](N)Cc1ccc(O)cc1)C(=O)N[C@@H](CCCN=C(N)N)C(=O)N[C@@H](Cc1ccccc1)C(N)=O (single isomer, unassigned) | 57% |
| CC(C)[C@@H]1C[C@]1(NC(=O)[C@H](Cc1ccccc1)NC(=O)[C@@H](C)NC(=O)CNC(=O)[C@@H](N)Cc1ccc(O)cc1)C(=O)N[C@@H](CCCN=C(N)N)C(=O)N[C@@H](Cc1ccccc1)C(N)=O | 29% [middle of 4 runs] |
| CC(C)C[C@H](NC(=O)[C@H](Cc1ccccc1)NC(=O)CNC(=O)CNC(=O)[C@@H](N)Cc1ccc(O)cc1)C(=O)N[C@@H](CCCN=C(N)N)C(=O)N[C@@H](Cc1ccccc1)C(N)=O | 98% and 84% |
| CC(C)C[C@@H](NC(=O)[C@H](Cc1ccccc1)NC(=O)CNC(=O)[C@H](C)NC(=O)[C@@H](N)Cc1ccc(O)cc1)C(=O)N[C@@H](CCCN=C(N)N)C(=O)N[C@@H](Cc1ccccc1)C(N)=O | 35% and 40% |
| CC(C)[C@H]1CC1(NC(=O)[C@H](Cc1ccccc1)NC(=O)[C@@H](C)NC(=O)[C@H](C)NC(=O)[C@@H](N)Cc1ccc(O)cc1)C(=O)N[C@@H](CCCN=C(N)N)C(=O)N[C@@H](Cc1ccccc1)C(N)=O (single isomer, unassigned; form 2) | 27% |
| CC(C)C[C@H](NC(=O)[C@H](Cc1ccccc1)NC(=O)CNC(=O)[C@H](C)NC(=O)[C@@H](N)Cc1ccc(O)cc1)C(=O)N[C@@H](CCCN=C(N)N)C(=O)N[C@@H](Cc1ccccc1)C(N)=O | 60% and 76% |
| CC(C)C[C@H](NC(=O)[C@H](Cc1ccccc1)NC(=O)[C@@H](C)NC(=O)[C@H](C)NC(=O)[C@@H](N)Cc1ccc(O)cc1)C(=O)N[C@@H](CCCN=C(N)N)C(=O)N[C@@H](Cc1ccccc1)C(N)=O | 58% and 65% |
| CC(C)[C@H]1C[C@@]1(NC(=O)[C@H](Cc1ccccc1)NC(=O)[C@@H](C)NC(=O)CNC(=O)[C@@H](N)Cc1ccc(O)cc1)C(=O)N[C@@H](CCCN=C(N)N)C(=O)N[C@@H](Cc1ccccc1)C(N)=O | 22% and 34% and 43% |
| CC(C)[C@@H]1C[C@]1(NC(=O)[C@H](Cc1ccccc1)NC(=O)[C@@H](C)NC(=O)[C@H](C)NC(=O)[C@@H](N)Cc1ccc(O)cc1)C(=O)N[C@@H](CCCN=C(N)N)C(=O)N[C@@H](Cc1ccccc1)C(N)=O | 30% [middle of 4 runs] |
| CC(C)C[C@H](NC(=O)[C@H](Cc1ccccc1)NC(=O)[C@@H](C)NC(=O)CNC(=O)[C@@H](N)Cc1ccc(O)cc1)C(=O)N[C@@H](CCCN=C(N)N)C(=O)N[C@@H](Cc1ccccc1)C(N)=O | 81% and 75% |
| CC(C)[C@H]1CC1(NC(=O)[C@H](Cc1ccccc1)NC(=O)[C@@H](C)NC(=O)CNC(=O)[C@@H](N)Cc1ccc(O)cc1)C(=O)N[C@@H](CCCN=C(N)N)C(=O)N[C@@H](Cc1ccccc1)C(N)=O (single isomer, unassigned) | 27% |
| CC(C)C[C@@H](NC(=O)[C@H](Cc1ccccc1)NC(=O)[C@@H](C)NC(=O)[C@H](C)NC(=O)[C@@H](N)Cc1ccc(O)cc1)C(=O)N[C@@H](CCCN=C(N)N)C(=O)N[C@@H](Cc1ccccc1)C(N)=O | 69% and 63% |
| CC(C)[C@H]1C[C@@]1(NC(=O)[C@H](Cc1ccccc1)NC(=O)[C@@H](C)NC(=O)[C@H](C)NC(=O)[C@@H](N)Cc1ccc(O)cc1)C(=O)N[C@@H](CCCN=C(N)N)C(=O)N[C@@H](Cc1ccccc1)C(N)=O | 32% and 35% |
| CC(C)C[C@@H](NC(=O)[C@H](Cc1ccccc1)NC(=O)[C@@H](C)NC(=O)CNC(=O)[C@@H](N)Cc1ccc(O)cc1)C(=O)N[C@@H](CCCN=C(N)N)C(=O)N[C@@H](Cc1ccccc1)C(N)=O | 28% and 48% |
| CC(C)C[C@@H](NC(=O)[C@H](Cc1ccccc1)NC(=O)CNC(=O)CNC(=O)[C@@H](N)Cc1ccc(O)cc1)C(=O)N[C@@H](CCCN=C(N)N)C(=O)N[C@@H](Cc1ccccc1)C(N)=O | 48% and 31% |
| CC(C)[C@H]1CC1(NC(=O)[C@H](Cc1ccccc1)NC(=O)[C@@H](C)NC(=O)[C@H](C)NC(=O)[C@@H](N)Cc1ccc(O)cc1)C(=O)N[C@@H](CCCN=C(N)N)C(=O)N[C@@H](Cc1ccccc1)C(N)=O (single isomer, unassigned; form 1) | 32% |
